Like-named read-outs stand apart in the source and are kept apart here.
Key:
[1] = tested on: Pyricularia oryzae Carvara KA301; assay type: in vivo; details: Rice Blast
Botrytis cinerae = experiment: Fungicidal activity against Cucumber Gray Mold Rot (CGM) disease; assay type: in vivo; details: Cucumber Gray Mold Rot; concentration 50 ppm
Phytophthora infestans = assay type: in vivo; details: Tomato Late Blight
Puccinia recondita = experiment: Fungicidal activity against Wheat Leaf Rust (WLR) disease; assay type: in vivo; details: Wheat Leaf Rust
Erysiphae graminis = experiment: Fungicidal activity against Barley Powdery Mildew (BPM) disease; assay type: in vivo; details: Barley Powdery Mildew
Rhizoctonia solani AG-1 = experiment: Fungicidal activity against Rice Sheath Blight (RSB) disease; details: Rice Sheath Blight

Compound | RCV (Fungicidal Activities, C.V.) ([1]; concentration 2 ppm) [%] | RCV (Fungicidal Activities, C.V.) ([1]; concentration 50 ppm) [%] | CGM (Fungicidal Activities, C.V.) (Botrytis cinerae) [%] | TLB (Fungicidal Activities, C.V.) (Phytophthora infestans; concentration 2 ppm) [%] | TLB (Fungicidal Activities, C.V.) (Phytophthora infestans; concentration 50 ppm) [%] | WLR (Fungicidal Activities, C.V.) (Puccinia recondita; concentration 2 ppm) [%] | WLR (Fungicidal Activities, C.V.) (Puccinia recondita; concentration 50 ppm) [%] | BPM (Fungicidal Activities, C.V.) (Erysiphae graminis; concentration 2 ppm) [%] | BPM (Fungicidal Activities, C.V.) (Erysiphae graminis; concentration 50 ppm) [%] | RSB (Fungicidal Activities, C.V.) (Rhizoctonia solani AG-1; concentration 2 ppm) [%] | RSB (Fungicidal Activities, C.V.) (Rhizoctonia solani AG-1; concentration 50 ppm) [%] | RCV (Fungicidal Activities, C.V.) ([1]; concentration 10 ppm) [%] | WLR (Fungicidal Activities, C.V.) (Puccinia recondita; concentration 10 ppm) [%] | BPM (Fungicidal Activities, C.V.) (Erysiphae graminis; concentration 10 ppm) [%]
CNC(=O)C(=NOC)c1ccccc1CON=C(C)c1cccc(OC(F)=Cc2ccc(F)cc2)c1 [Compound 82] | 100 | 96 | 82 | 85 | 84 | 100 | 100 | 100 | 100 | 55 | 85 |  |  | 
COC=C(C(=O)OC)c1ccccc1CON=C(c1cccc(OC(F)=Cc2ccc(C)cc2)c1)C(F)(F)F [Compound 85] |  | 93 | 7 |  | 0 |  | 96 |  | 99 |  | 40 | 16 | 93 | 92
COC=C(C(=O)OC)c1ccccc1CON=C(c1cccc(OC(F)=Cc2ccc(OC)cc2)c1)C(F)(F)F [Compound 89] |  | 80 | 0 |  | 12 |  | 96 |  | 100 |  | 50 |  | 70 | 99
COC=C(C(=O)OC)c1ccccc1CON=C(c1cccc(OC(F)=Cc2cccc(F)c2)c1)C(F)(F)F [Compound 90] |  | 76 | 9 |  | 27 |  | 86 |  | 99 |  | 35 |  |  | 97
COC=C(C(=O)OC)c1ccccc1CON=C(c1cccc(OC(F)=Cc2ccc3c(c2)OCO3)c1)C(F)(F)F [Compound 94] | 99 | 100 | 54 |  | 68 | 93 | 100 | 100 | 100 |  | 60 | 100 | 96 | 100
CON=C(C(=O)OC)c1ccccc1CON=C(c1cccc(OC(F)=Cc2ccccc2)c1)C(F)(F)F [Compound 102] | 71 | 99 | 23 |  | 0 | 94 | 99 | 97 | 100 |  | 50 | 86 | 96 | 100
COC=C(C(=O)OC)c1ccccc1CON=Cc1cccc(OC(F)=C(c2cccc(C)c2)C(F)(F)F)c1 [Compound 104] | 25 | 96 | 0 |  | 0 | 66 | 97 | 80 | 100 |  | 45 | 75 | 93 | 99
COC=C(C(=O)OC)c1ccccc1CON=Cc1cccc(OC(F)=C(c2ccc(C)cc2)C(F)(F)F)c1 [Compound 105] |  | 0 | 0 |  | 0 | 86 | 100 | 98 | 100 |  | 20 |  | 98 | 99
COC=C(C(=O)OC)c1ccccc1CON=Cc1cccc(OC(F)=C(c2ccc(OC)cc2)C(F)(F)F)c1 [Compound 111] |  | 0 | 17 |  | 0 | 80 | 98 | 95 | 100 |  | 0 |  | 95 | 100
COC=C(C(=O)OC)c1ccccc1CON=Cc1cccc(OC(F)=C(c2ccc(F)cc2)C(F)(F)F)c1 [Compound 113] |  | 0 | 0 |  | 21 | 86 | 100 | 86 | 100 |  | 20 |  | 98 | 96
COC=C(C(=O)OC)c1ccccc1CON=Cc1cccc(OC(F)=C(c2cccc(Cl)c2)C(F)(F)F)c1 [Compound 116] |  | 0 | 0 |  | 14 | 53 | 96 | 33 | 100 |  | 15 |  | 96 | 96
COC=C(C(=O)OC)c1ccccc1CON=Cc1cccc(OC(F)=C(c2ccc(Br)cc2)C(F)(F)F)c1 [Compound 118] |  | 33 | 36 |  | 0 | 91 | 100 | 88 | 100 |  | 30 |  | 98 | 96
CON=C(C(=O)OC)c1ccccc1CON=Cc1cccc(OC(F)=C(c2ccccc2)C(F)(F)F)c1 [Compound 131] | 43 | 80 | 42 |  | 4 | 98 | 100 | 76 | 100 |  | 55 |  |  | 
CON=C(C(=O)OC)c1ccccc1CON=Cc1cccc(OC(F)=C(c2ccc(F)cc2)C(F)(F)F)c1 [Compound 135] | 43 | 86 | 71 |  | 0 | 94 | 100 | 93 | 100 | 20 | 61 |  |  | 
CNC(=O)C(=NOC)c1ccccc1CON=Cc1cccc(OC(F)=C(c2ccccc2)C(F)(F)F)c1 [Compound 139] | 53 | 100 | 0 |  | 46 | 93 | 98 | 97 | 98 | 10 | 20 |  |  | 
